Laboratory results from PubChem BioAssay AID248 (DTP/NCI, 2004).
Where “and” joins values, the source holds several entries; their conditions need not be identical. Identical values can stand only once. Toxic doses and inconclusive results are not listed. No stated cut-off is given here; in the data, active means T/C of 150% or more; inactive means T/C below 125%.

System: L1210 leukemia ip in BDF1 mice, survival T/C
Assay: NCI In Vivo Anticancer Drug Screen. Data for tumor model L1210 Leukemia (intraperitoneal) in B6D2F1 (BDF1) mice
Settings: endpoint: mean survival time, higher = longer survival
Outline: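 In this screen, tumor-bearing mice given compound are compared to those given vehicle, and their survival values are reported as a treated-to-control quotient.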

[1] = dose: 100.0 mg/kg/injection, schedule: Q04DX003 (ip), vehicle: Klucel (hydroxypropylcellulose) (HPC)
[2] = dose: 200.0 mg/kg/injection, schedule: Q04DX003 (ip), vehicle: Klucel (hydroxypropylcellulose) (HPC)
[3] = dose: 400.0 mg/kg/injection, schedule: Q04DX003 (ip), vehicle: Klucel (hydroxypropylcellulose) (HPC)
[4] = dose: 100.0 mg/kg/injection, schedule: Q01DX001 (ip), vehicle: saline
[5] = dose: 200.0 mg/kg/injection, schedule: Q01DX001 (ip), vehicle: saline
[6] = dose: 400.0 mg/kg/injection, schedule: Q01DX001 (ip), vehicle: saline
[7] = dose: 100.0 mg/kg/injection, schedule: Q01DX009 (ip), vehicle: Klucel (hydroxypropylcellulose) (HPC)
[8] = dose: 200.0 mg/kg/injection, schedule: Q01DX009 (ip), vehicle: Klucel (hydroxypropylcellulose) (HPC)
[9] = dose: 400.0 mg/kg/injection, schedule: Q01DX009 (ip), vehicle: Klucel (hydroxypropylcellulose) (HPC)
[10] = dose: 50.0 mg/kg/injection, schedule: Q01DX009 (ip), vehicle: saline
[11] = dose: 100.0 mg/kg/injection, schedule: Q01DX009 (ip), vehicle: saline
[12] = dose: 100.0 mg/kg/injection, schedule: Q04DX003 (ip), vehicle: saline
[13] = dose: 200.0 mg/kg/injection, schedule: Q01DX009 (ip), vehicle: saline
[14] = dose: 200.0 mg/kg/injection, schedule: Q04DX003 (ip), vehicle: saline
[15] = dose: 400.0 mg/kg/injection, schedule: Q04DX003 (ip), vehicle: saline

Measured: T/C

Cc1cc(C)cc(Cc2ccc3ccccc3c2)c1
inactive: dose: 50.0 mg/kg/injection, schedule: Q01DX001 (ip), vehicle: Klucel (hydroxypropylcellulose) (HPC) 109 % of control | dose: 100.0 mg/kg/injection, schedule: Q01DX001 (ip), vehicle: Klucel (hydroxypropylcellulose) (HPC) 98 % of control | dose: 200.0 mg/kg/injection, schedule: Q01DX001 (ip), vehicle: Klucel (hydroxypropylcellulose) (HPC) 96 % of control | dose: 400.0 mg/kg/injection, schedule: Q01DX001 (ip), vehicle: Klucel (hydroxypropylcellulose) (HPC) 90 % of control

CS(=O)(=O)OCC1CCC(COS(C)(=O)=O)CC1 (centres undefined)
inactive: [1] 103 % of control | [2] 100 % of control | [3] 102 % of control

CN(C)C1(Cc2ccc(Cl)cc2)c2ccccc2-c2ccccc21
inactive: dose: 100.0 mg/kg/injection, schedule: Q01DX009 (ip), vehicle: other 94 % of control | dose: 100.0 mg/kg/injection, schedule: Q04DX003 (ip), vehicle: other 105 % of control | dose: 200.0 mg/kg/injection, schedule: Q01DX009 (ip), vehicle: other 98 % of control | dose: 200.0 mg/kg/injection, schedule: Q04DX003 (ip), vehicle: other 100 % of control | dose: 400.0 mg/kg/injection, schedule: Q01DX009 (ip), vehicle: other 104 % of control | dose: 400.0 mg/kg/injection, schedule: Q04DX003 (ip), vehicle: other 115 % of control

COC(=O)C1C2C(C)=CC(O)(CC2(C)C)C1C(=O)OC (centres undefined)
inactive: [4] 95 % of control | [5] 95 % of control | [6] 101 % of control

Oc1ccccc1C=Nc1ccc(Cl)c(Cl)c1
inactive: [7] 93 % of control | [8] 93 % of control | [9] 96 % of control

c1ccc2c3nc4ccccc4c-3scc2c1
inactive: dose: 100.0 mg/kg/injection, schedule: Q01DX001 (ip), vehicle: acetone 100 % of control | dose: 200.0 mg/kg/injection, schedule: Q01DX001 (ip), vehicle: acetone 103 % of control

CNCCCNCC1C(c2ccccc2)C1c1ccccc1 (centres undefined)
inactive: dose: 25.0 mg/kg/injection, schedule: Q04DX002 (ip), vehicle: saline 100 % of control and 90 % of control | dose: 50.0 mg/kg/injection, schedule: Q04DX002 (ip), vehicle: saline 103 % of control | dose: 100.0 mg/kg/injection, schedule: Q04DX002 (ip), vehicle: saline 86 % of control and 97 % of control

O=CNc1ccc(C(=O)O)cc1
inactive: dose: 100.0 mg/kg/injection, schedule: Q01DX009 (ip), vehicle: saline with Tween-80 95 % of control | dose: 200.0 mg/kg/injection, schedule: Q01DX009 (ip), vehicle: saline with Tween-80 100 % of control | dose: 400.0 mg/kg/injection, schedule: Q01DX009 (ip), vehicle: saline with Tween-80 95 % of control

Cc1cccc(NC(N)=O)c1
inactive: [10] 96 % of control | [11] 97 % of control | [12] 95 % of control | [13] 94 % of control | [14] 97 % of control | [15] 94 % of control

O=C(O)c1c(Br)c(Br)c(Br)c(Br)c1C(=O)Nc1cc([N+](=O)[O-])ccc1O
inactive: [7] 106 % of control | [8] 122 % of control | [9] 101 % of control

O=C(O)c1ccc([N+](=O)[O-])cc1-n1cccc1
inactive: [1] 95 % of control | [2] 98 % of control | [3] 88 % of control

O=C(O)/C=C\C(=O)Nc1ccc2c(c1)OCO2
inactive: [7] 98 % of control | [8] 94 % of control | [9] 91 % of control

CN(C)CCCC1C2CCC(C2)C1C#N (centres undefined)
inactive: dose: 12.5 mg/kg/injection, schedule: Q01DX009 (ip), vehicle: Klucel (hydroxypropylcellulose) (HPC) 104 % of control | dose: 25.0 mg/kg/injection, schedule: Q01DX009 (ip), vehicle: Klucel (hydroxypropylcellulose) (HPC) 95 % of control | dose: 25.0 mg/kg/injection, schedule: Q04DX003 (ip), vehicle: Klucel (hydroxypropylcellulose) (HPC) 96 % of control | dose: 50.0 mg/kg/injection, schedule: Q01DX009 (ip), vehicle: Klucel (hydroxypropylcellulose) (HPC) 104 % of control | dose: 50.0 mg/kg/injection, schedule: Q04DX003 (ip), vehicle: Klucel (hydroxypropylcellulose) (HPC) 93 % of control

COC(=O)c1c(Cl)c(Cl)cc(Cl)c1Cl
inactive: dose: 100.0 mg/kg/injection, schedule: Q01DX009 (ip), vehicle: saline sonified 106 % of control | [1] 93 % of control | dose: 200.0 mg/kg/injection, schedule: Q01DX009 (ip), vehicle: saline sonified 113 % of control | [2] 98 % of control | dose: 400.0 mg/kg/injection, schedule: Q01DX009 (ip), vehicle: saline sonified 107 % of control | [3] 106 % of control

CSc1ncnc2c1ncn2CC(=O)[C@@]1(O)CC[C@H]2[C@@H]3CCC4=CC(=O)CC[C@]4(C)[C@H]3[C@@H](O)C[C@@]21C
inactive: dose: 100.0 mg/kg/injection, schedule: Q01DX001 (sc), vehicle: steriod suspending solution 99 % of control | dose: 200.0 mg/kg/injection, schedule: Q01DX001 (sc), vehicle: steriod suspending solution 100 % of control | dose: 400.0 mg/kg/injection, schedule: Q01DX001 (sc), vehicle: steriod suspending solution 100 % of control

CCOC(=O)C1=C(C)NC(C)=C(C(=O)OCC)C1
inactive: [10] 101 % of control | [11] 96 % of control | [12] 104 % of control | [13] 96 % of control | [14] 108 % of control | dose: 400.0 mg/kg/injection, schedule: Q01DX009 (ip), vehicle: saline 101 % of control | [15] 95 % of control

CC(=O)Nc1ccc(/C=N\Nc2ccccn2)cc1
inactive: [4] 89 % of control | [5] 100 % of control | [6] 93 % of control

C/C=C\C(C)C(C)C (centres undefined)
inactive: [10] 93 % of control | [11] 97 % of control | [13] 93 % of control

O=Cc1c2ccccc2cc2ccccc12
inactive: dose: 9.5 mg/kg/injection, schedule: Q01DX015 (ip), vehicle: saline 96 % of control | dose: 9.5 mg/kg/injection, schedule: Q## X015 (ip), vehicle: saline 94 % of control | dose: 9.7 mg/kg/injection, schedule: Q01DX015 (ip), vehicle: other 97 % of control | dose: 16.2 mg/kg/injection, schedule: Q01DX015 (ip), vehicle: other 107 % of control | dose: 16.2 mg/kg/injection, schedule: Q## X015 (ip), vehicle: saline 94 % of control | dose: 27.0 mg/kg/injection, schedule: Q01DX015 (ip), vehicle: other 104 % of control | dose: 27.0 mg/kg/injection, schedule: Q## X015 (ip), vehicle: saline 96 % of control | dose: 45.0 mg/kg/injection, schedule: Q01DX015 (ip), vehicle: other 91 % of control | dose: 45.0 mg/kg/injection, schedule: Q01DX015 (ip), vehicle: saline 96 % of control and 109 % of control | dose: 45.0 mg/kg/injection, schedule: Q## X015 (ip), vehicle: saline 94 % of control | dose: 50.0 mg/kg/injection, schedule: Q01DX001 (ip), vehicle: saline 95 % of control and 100 % of control and 103 % of control | [4] 97 % of control and 100 % of control and 103 % of control | [5] 101 % of control | [6] 97 % of control and 101 % of control and 114 % of control | dose: 800.0 mg/kg/injection, schedule: Q01DX001 (ip), vehicle: saline 100 % of control
